The values below are quoted from earlier work in patent US9782454B2 (LONGEVITY BIOTECH, INC., priority 2010, dated 2017).

Non-standard residues stand in square brackets, D forms with d. No end group written: not given here. dPhe(4-Cl) = N[C@H](Cc1ccc(Cl)cc1)C(=O)O

One series deals with mouse CRF2β (Mus musculus, UniProt Q60748). Conditions: read-out: Kd for binding to mouse CRF2β; cited from earlier work.
A further series deals with T1, rat CRF1 receptors (Rattus norvegicus, UniProt P35353).
T1 sequence (P35353 24-415): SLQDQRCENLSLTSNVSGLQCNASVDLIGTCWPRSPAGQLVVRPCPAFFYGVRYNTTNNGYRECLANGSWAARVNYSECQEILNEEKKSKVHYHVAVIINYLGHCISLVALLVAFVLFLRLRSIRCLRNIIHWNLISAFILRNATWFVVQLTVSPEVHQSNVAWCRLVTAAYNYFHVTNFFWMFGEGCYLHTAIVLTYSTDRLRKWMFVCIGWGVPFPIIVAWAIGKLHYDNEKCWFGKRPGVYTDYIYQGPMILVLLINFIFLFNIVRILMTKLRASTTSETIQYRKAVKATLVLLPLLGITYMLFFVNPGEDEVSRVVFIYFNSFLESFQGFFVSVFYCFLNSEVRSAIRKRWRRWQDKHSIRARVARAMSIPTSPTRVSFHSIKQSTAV
To be noted: read-out: Kd for binding to rat CRF1 receptors; cited from earlier work.

For the next series, the target named is T2, mCRF2β (Mus musculus, UniProt Q60748).
T2 construct: expressed in transfected cells; host or cells: HEK-mCRF2β cells (value quoted from the literature)
To be noted: cited from earlier work.

In the next series the target is T3, neurotensin receptor (Mus musculus, UniProt O88319).
T3 construct: from tissue; host or cells: neonatal mouse brain (value quoted from the literature)
Conditions: read-out: IC50 for inhibition of {125I}-NT binding to neonatal mouse brain; cited from earlier work.

Another series has as its system guinea pig ileum. Conditions: read-out: EC50 for contraction of guinea pig ileum; cited from earlier work.
The next series addresses neurotensin receptors. Conditions: read-out: IC50 for inhibition of {Trp11}-NT binding to rat brain receptors; cited from earlier work.
Series [1] has as its target T4, human calcitonin receptor (Homo sapiens, UniProt P30988).
T4 sequence (P30988 25-474): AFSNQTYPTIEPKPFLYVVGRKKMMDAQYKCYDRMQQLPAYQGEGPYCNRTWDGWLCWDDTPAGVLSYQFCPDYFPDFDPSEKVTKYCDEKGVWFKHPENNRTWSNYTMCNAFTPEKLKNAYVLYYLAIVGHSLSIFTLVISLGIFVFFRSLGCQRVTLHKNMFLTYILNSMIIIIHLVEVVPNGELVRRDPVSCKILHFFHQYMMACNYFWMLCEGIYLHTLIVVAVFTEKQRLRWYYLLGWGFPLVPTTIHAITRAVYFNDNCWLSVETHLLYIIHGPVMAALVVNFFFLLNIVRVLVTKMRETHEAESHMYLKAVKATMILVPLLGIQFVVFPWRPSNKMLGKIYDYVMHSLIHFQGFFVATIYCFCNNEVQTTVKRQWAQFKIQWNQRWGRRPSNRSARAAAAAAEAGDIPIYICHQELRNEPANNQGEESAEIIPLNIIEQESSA
Conditions: read-out: EC50, agonist for the human calcitonin receptor; cited from earlier work.

Another series addresses 14.3.3 proteins. To be noted: read-out: KD, antagonist of 14.3.3 proteins; cited from earlier work.
In series [2] the target is vasoactive intestinal peptide (VIP) receptor. To be noted: read-out: IC50, selective VIP antagonist; cited from earlier work.
The target in a further series is glucagon receptors (Homo sapiens, UniProt P47871). Conditions: cited from earlier work.
A further series deals with secretin receptors (Homo sapiens, UniProt P47872). To be noted: cited from earlier work.
A further series has as its target T5, GRF receptors (Homo sapiens, UniProt Q02643).
T5 sequence (Q02643 23-423): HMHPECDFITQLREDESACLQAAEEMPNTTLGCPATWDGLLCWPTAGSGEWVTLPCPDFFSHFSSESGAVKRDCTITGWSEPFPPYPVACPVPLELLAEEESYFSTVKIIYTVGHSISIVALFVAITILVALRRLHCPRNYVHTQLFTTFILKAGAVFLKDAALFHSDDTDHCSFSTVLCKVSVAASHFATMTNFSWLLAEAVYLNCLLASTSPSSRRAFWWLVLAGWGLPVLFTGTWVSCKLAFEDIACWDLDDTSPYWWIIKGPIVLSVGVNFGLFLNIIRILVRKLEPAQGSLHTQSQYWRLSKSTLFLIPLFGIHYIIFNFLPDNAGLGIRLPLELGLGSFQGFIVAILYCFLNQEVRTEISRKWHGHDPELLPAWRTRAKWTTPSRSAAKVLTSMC
Conditions: cited from earlier work.

Sequence of glucagon receptors (P47871 26-477): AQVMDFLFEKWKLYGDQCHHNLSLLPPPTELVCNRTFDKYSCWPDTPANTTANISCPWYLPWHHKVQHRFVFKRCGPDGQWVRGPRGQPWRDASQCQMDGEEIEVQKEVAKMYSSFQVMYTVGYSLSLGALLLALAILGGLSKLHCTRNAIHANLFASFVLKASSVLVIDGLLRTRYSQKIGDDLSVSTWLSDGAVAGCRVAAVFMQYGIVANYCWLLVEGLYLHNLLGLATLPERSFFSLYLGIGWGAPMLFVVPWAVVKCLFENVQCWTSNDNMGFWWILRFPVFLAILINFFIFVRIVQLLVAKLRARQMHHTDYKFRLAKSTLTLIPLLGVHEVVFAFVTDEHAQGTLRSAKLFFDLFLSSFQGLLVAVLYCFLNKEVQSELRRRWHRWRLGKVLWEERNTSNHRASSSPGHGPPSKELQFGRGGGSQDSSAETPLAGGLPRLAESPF
T2 sequence (Q60748 1-431 isoform Q60748-2): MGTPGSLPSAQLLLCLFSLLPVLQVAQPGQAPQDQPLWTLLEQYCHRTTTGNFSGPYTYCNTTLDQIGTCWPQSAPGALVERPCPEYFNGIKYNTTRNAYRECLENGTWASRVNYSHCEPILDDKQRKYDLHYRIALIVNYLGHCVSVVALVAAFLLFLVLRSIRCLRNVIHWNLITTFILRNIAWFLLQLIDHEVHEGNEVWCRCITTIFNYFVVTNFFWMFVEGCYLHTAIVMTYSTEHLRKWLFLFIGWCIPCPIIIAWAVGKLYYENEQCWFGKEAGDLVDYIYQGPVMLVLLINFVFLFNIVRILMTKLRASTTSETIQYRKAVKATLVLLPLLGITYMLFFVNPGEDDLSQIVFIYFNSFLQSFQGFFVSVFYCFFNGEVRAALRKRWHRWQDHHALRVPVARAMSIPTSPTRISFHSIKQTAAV
Sequence of mouse CRF2β (Q60748 1-431 isoform Q60748-2): as above
T3 sequence (O88319 whole entry): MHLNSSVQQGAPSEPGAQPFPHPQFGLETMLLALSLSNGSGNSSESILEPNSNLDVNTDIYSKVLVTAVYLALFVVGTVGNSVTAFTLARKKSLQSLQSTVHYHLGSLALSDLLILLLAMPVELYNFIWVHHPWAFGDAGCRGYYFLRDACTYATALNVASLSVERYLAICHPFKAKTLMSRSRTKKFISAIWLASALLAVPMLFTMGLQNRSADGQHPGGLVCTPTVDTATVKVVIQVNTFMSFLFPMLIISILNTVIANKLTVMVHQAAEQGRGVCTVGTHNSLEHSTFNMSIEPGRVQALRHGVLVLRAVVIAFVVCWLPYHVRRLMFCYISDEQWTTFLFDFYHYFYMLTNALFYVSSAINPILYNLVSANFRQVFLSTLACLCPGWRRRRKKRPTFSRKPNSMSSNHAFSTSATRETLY
Sequence of secretin receptors (P47872 23-440): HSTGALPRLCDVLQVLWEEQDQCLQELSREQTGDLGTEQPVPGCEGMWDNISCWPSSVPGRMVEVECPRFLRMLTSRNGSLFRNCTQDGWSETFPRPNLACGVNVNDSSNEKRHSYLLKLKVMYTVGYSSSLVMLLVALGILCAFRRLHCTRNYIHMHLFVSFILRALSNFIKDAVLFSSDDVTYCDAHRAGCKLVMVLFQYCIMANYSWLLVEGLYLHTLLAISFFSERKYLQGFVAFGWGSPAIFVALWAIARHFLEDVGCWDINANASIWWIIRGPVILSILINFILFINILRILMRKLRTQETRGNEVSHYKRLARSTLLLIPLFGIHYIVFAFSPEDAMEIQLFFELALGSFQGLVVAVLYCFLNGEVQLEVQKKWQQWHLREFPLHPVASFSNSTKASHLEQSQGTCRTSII

By Kd is commonly meant the concentration at which binding is half-saturated. Regarding Antisauvagine-30, the equilibrium dissociation constant (Kd) on mouse CRF2β is 1.4 nM; on rat CRF1 receptors, 154 nM. For the same substance, the “pA2, inhibition of sauvagine-stimulated cAMP accumulation in HEK-mCRF2β cells” value on mCRF2β is “sauvagine-stimulated cAMP accumulation in HEK-mCRF2β cells (pA2 = 8.49). Prevents stress-”.

By IC50 is commonly meant the concentration that gives 50% inhibition. By EC50 is commonly meant the concentration at which the effect is half-maximal. On to JMV 449 (IARRHPYFL; Kinetensin), for which the IC50 in the series with neurotensin receptor is 0.15 nM. The EC50 in the series with guinea pig ileum was 1.9 nM.

In the case of “Neuromedin N (rat, mouse, porcine, canine) (KIPYIL; Neuromedin N; UniProt P20068 142-147, looked up)”, the concentration for half-maximal inhibition (IC50) on neurotensin receptors is 16.7 nM.

Regarding “PHM 27 (human) (HADGVFTSDFSKLLGQLSAKKYLESLM-NH2; UniProt P01282 81-107, looked up)”, the concentration for a half-maximal effect (EC50) in [1] was 11 nM.

Turning to “R18 (RYVVLPRPVCFEKGMNYTVR; Peptide F9) [Compound R18]”, at 14.3.3 proteins, the Kd is around 80 nM.

As for “{D-p-C1-Phe6,Leu17}-VIP ([dPhe(4-Cl)]TDNYTRLRKQMAVKKYLNSILN-NH2)”, in series [2], the IC50 was 126 nM. Further, the “activity on glucagon receptors” value with glucagon receptors is “no activity”. Further, the “activity on secretin receptors” value with secretin receptors is “no activity”. In addition, in the series with GRF receptors, the “activity on GRF receptors” value is reported as “no activity”.
